Reference: patent US10323254B2, “Method for regulating plant growth” (RIKEN, priority 2015, dated 2019)
Entries after “also recorded” stand apart in the source; their conditions may differ.

Experiments:
[1] = test system: nEYFP-BSS1 and BIL1-cEYFP; assay: BiFC analysis of the BSS1-BIL1 interaction in protoplast cells; format: cell-based, Arabidopsis; settings: protoplasts
Protocol: BIL1 was fused with the binding-domain (BD) and BSS1 was fused with the prey domain (AD). Empty vector (E) was used as a control. The results are presented as the mean±s.d. from 3 independent experiments. […] FLAG-BIL1 was immunoprecipitated using an anti-FLAG antibody and immunoblotted using anti-GFP and anti-FLAG antibodies. […] The protoplast medium contained DMSO, 100 nM BL, or 3 μM Brz and cells were cultured for 12 hours. The bottom panels show protoplasts cotransfected with nYFP-BSS1 and BSS1-cEYFP (YFP: YFP fluorescence; BF: bright field; Merge: merged image of YFP and BF; arrow: nucleus; scale bar: 5 μm). […]
To analyze the direct interaction between BSS1 and BIL1 in the plant cell and to identify the localization of the possible interaction between the two proteins, a bi-molecular fluorescence complementation (BiFC) analysis was performed. […] The YFP fluorescence signal caused by the binding of nYFP-BSS1 and BIL1-cYFP was only observed in the cytosol and not in the nucleus of the Arabidopsis protoplasts (FIG. 7E). […]

[2] = test system: BSS1-GFP; assay: Non-reducing immunoblot analysis of BSS1-GFP oligomer; format: in vivo, Arabidopsis thaliana; settings: non-reducing conditions (without DTT); after BL treatment
Protocol: Oligomeric BSS1-GFP and monomeric BSS1-GFP are shown by arrowhead O and arrowhead M, respectively. […] Total lysates were prepared from the transgenic plants and ultracentrifuged to separate the insoluble (precipitation) and soluble (supernatant) fractions. The insoluble fractions were then treated with the indicated surfactants and subjected to further ultracentrifugation. The resulting supernatants and pellets were analyzed by immunoblotting. As a control, the indicated surfactant-treated BIL2-GFP (protein localized to the mitochondria) samples were centrifuged as above.
[…] The proteins were separated by SDS-PAGE (10% acrylamide gel). After electrophoresis, the proteins were electrophoretically transferred to a Hybond ECL nitrocellulose membrane (Amersham). […]

[3] = test system: BSS1 pro:GUS; assay: GUS staining of BSS1 pro:GUS transgenic seedlings; format: in vivo, Arabidopsis thaliana; settings: 3-day-old seedlings on medium with 3 μM Brz, dark or light
Protocol: The data represent the mean±s.d. from 4 independent experiments. […] The samples were grown in the same conditions as FIG. 4A for 3 days (scale bar: 5 mm). FIGS. 4C to 4E show the results of determining the BSS1 expression level by qRT-PCR. Wild-type (WT) seedlings grown on medium with different concentrations of Brz (FIG. 4C) and BL (FIG. 4D) in the light for 7 days and dark-grown seedlings exposed to light for 0-7 days (Figure E) were used for analysis of the BSS1 expression level. The data represent the mean±s.d. of 4 independent experiments. The seedlings of the BSS1 promoter: GUS transgenic plants were used for the histochemical detection of GUS expression. The samples were stained at 37° C. overnight in GUS staining solution as previously described (Ito and Fukuda, 2002, ZEN1 is a key enzyme in the degradation of nuclear DNA during programmed cell death of tracheary elements. Plant Cell 14: 3201-3211). To test the induction of GUS expression, 3-day-old transgenic seedlings were grown on medium with 3 μM Brz or dimethyl sulfoxide (DMSO) as a control.

[4] = test system: BIL1-GFP; assay: Fluorescence microscopy of BIL1-GFP localization in root cells; format: in vivo, Arabidopsis thaliana; settings: for punctate BIL1-GFP signals: root cells
Protocol: The results are presented as the mean±s.d. (n=61, *P<0.01, Student's t-test). […] The results are presented as the mean±s.d. (n=27, *P<0.01, Student's t-test).
The plants that were transformed with the CaMV35S-BSS1-GFP construct BSS1(-GFP)-OX and the CaMV35S-BIL1-GFP construct BIL1-GFP-OX were observed via confocal laser scanning microscopy with a BX60 fluorescence microscope (Olympus) equipped with a Model CSU10 confocal scanner (Yokogawa Electric) and LSM700 (Zeiss).
The images were analyzed using ImageJ software. To measure the ratio of the nuclear and cytosolic signals of BIL1-GFP for each cell, the signal intensities in the nucleus and cytosol were calculated from the mean of the intensity in each area. The nuclear to cytosolic signal ratio was then calculated for each cell. The average nuclear/cytosolic signal ratio and standard error were calculated from measurements of at least 54 cells from each line (FIG. 9B). Line scan measurements from the vacuole to the nucleus through the cytosol were performed, and representative plot profiles of sample measurements are presented in FIG. 5C.

`CC(C)[C@H](C)[C@@H](O)[C@H](O)[C@@H](C)[C@H]1CC[C@H]2[C@@H]3COC(=O)[C@H]4C[C@H](O)[C@H](O)C[C@]4(C)[C@H]3CC[C@]12C` [BL, brassinolide] was tested, and the “localization of YFP signal (nYFP-BSS1 / BIL1-cYFP)” value ([1]; 100 nM BL for 12 hours) was “diffuse and spread throughout the cytosol and the nucleus” and the “amount of the oligomeric form of BSS1-GFP” value [2] was “significantly decreased”.
With `CC(O)(c1ccccc1)C(Cc1ccc(Cl)cc1)n1cncn1` (centres unmarked) [Brz, brassinazole] the “BSS1 pro:GUS reporter expression” value [3] was “caused BSS1 expression in the hypocotyls in the dark and in the cotyledons under light and dark conditions”, the “punctate YFP signal (nYFP-BSS1 / BIL1-cYFP)” value ([1]; 3 μM Brz for 12 hours) was “increased” and the “enhanced nuclear BIL1-GFP signal” value ([4]; bop1-3 bop2-1 background, root cells of 4-day-old seedlings, 3 μM Brz) was “strongly maintained”. For the same compound, the “punctate BIL1-GFP signals” value ([4]; bop1-3 bop2-1 plants, treated with 3 μM Brz) was “not detected”, the “nuclear-to-cytosolic ratio of the BIL1-GFP signal” value ([4]; wild-type background, root cells of 4-day-old seedlings, 3 μM Brz) was “decreased” and the “punctate BIL1-GFP signals” value ([4]; wild-type background, after 3 μM Brz treatment) was “many punctate BIL1-GFP signals in the cytosol; also recorded: observed”.
